Source: patent US20060128792A1, “Deguelin as a chemopreventive agent for lung cancer” (priority 2002, published 2006)
“And” between values parts separate entries of the source, which are not always exact repeats. Identical values can stand only once.

Columns and labels:
H1299 xenografts = experiment: NSCLC xenograft tumor growth; assay type: in vivo, athymic nude mice; details: 4 mg/kg or 8 mg/kg, 5 consecutive days; measured for 15 days; vs control
Procedure: The antitumor effect of deguelin was tested using an iii vivo model. H1299 cells were injected into the dorsal flank of athymic nude mice. Once tumor volume reached 40-80 mm^3, treatment for 5 consecutive days with 4 or 8 mg/kg deguelin began. Tumors were measured every other day for 15 days. […] The results are expressed as the mean (±SD) tumor volume (calculated from at least 5 mice) relative to the initial volume.

H1299 NSCLC cells = experiment: Sensitization to chemotherapeutic agents and irradiation, MTT analysis; assay type: cell-based; details: deguelin 100 nM 2 days; 10 nM paclitaxel, 50 nM doxorubicin or 4Gy irradiation for 1 day
Procedure: FIG. 10. […] Results are expressed relative to the density of untreated cells. Bars, means±SD of a representative experiment done in six identical wells from five independently performed experiments.
Additional studies were conducted to determine whether deguelin can sensitize cells resistant to a chemotherapeutic agent. H1299 NSCLC cells were incubated with deguelin (100 nM) for 2 days.

COX-2 = experiment: COX-1 and COX-2 expression by northern and western blotting; assay type: cell-based; details: premalignant cells (1799, squamous HBE); 1 nM, 10 nM or 100 nM
Procedure: COX-2 on the other hand, is found to be induced and expressed in neoplastic growth. […] Thus, it was determined whether deguelin regulates the expression of COX-2 in lung cancer cells. Normal, premalignant, and malignant lung cancer cells, NHBE, 1799, 1198, and 1170, were treated with 1 nM, 10 nM, or 100 nM deguelin for 1 day and COX-1 and COX-2 expression were analyzed by northern blotting.
In this study, the protein and mRNA expression of COX-1 and COX-2 were tested in 1799 and squamous (Sq) HBE cells. These cells were treated with 1 nM, 10 nM, or 100 nM deguelin and the COX-1 and COX-2 RNA and analyzed by northern blotting and western blotting. Equal amount of mRNA in each lane was confirmed by northern blot analysis using GAPDH (data not shown).

[1] = system: H1299 and squamous HBE cells; experiment: Apoptosis by flow cytometry (FACS); assay type: cell-based; details: 10^−7 M deguelin, by day 2 or day 3
Procedure: (§1) Apoptosis assay. Normal, premalignant, and malignant HBE cells were exposed to v various doses of deguelin for 3 days. […] Both adherent and floating cells were combined for the assessment of apoptosis using the APO-BRDU staining kit (Phoenix Flow Systems, San Diego, Calif.). Briefly, floating and attached cells dispersed with trypsin-EDTA were pelleted, washed, and fixed by 1% paraformaldehyde followed by 70% ethanol. The fixed cells were washed and incubated with DNA-labeling solution containing terminal deoxynucleotidyl transferase (TdT) reaction buffer, TdT enzyme, and bromodeoxyuridine triphosphate (Br-dUTP). Cells were rinsed, resuspended with fluorescein-PRB-I antibody solution, and analyzed by flow cytometry in the presence of PI/RNase solution. […] A dual display of DNA area (linear red fluorescence) and Br-dUTP incorporation (FITC-PRB-1) was used to determine the percentage of apoptotic cells.
(§2) The apoptotic effect of deguelin was further assessed in HBE cells. […] Apoptosis was analyzed by flow cytometry as described above. […] To confirm the apoptotic activity in these cells, bax and bcl-2 expression were analyzed by western blotting. […] Thus, it was determined that deguelin increases bax expression thereby inducing the apoptotic activity in lung cancer cells.

NHBE = experiment: MTT assay, growth inhibition / viability of normal HBE cells; details: for Avg. % con / MTT value, mean of replicates (unheaded line) / MTT value, replicate (unheaded line): NHBE, 3 days
Procedure: Cells and Cell Cultures. […] Normal HBE (NHBE) cells were purchased from Clontech (Palo Alto, Calif.). […] Cells were grown on tissue culture plasticware (Falcon; Bector, Dickinson, Bedford, Mass.) at 37° C. in a humidified atmosphere with 5% C02. For the analyses of growth inhibition, cell cycle, and induction of apoptosis by deguelin, NHBE cells, HBE cell lines, and squamous HBE cells were cultured in KSFM (Life Technologies) containing 2 μg/ml of EGF and bovine pitutary extract.
Cell Treatment with Deguelin and Determination of Growth Inhibition. To measure the effects of deguelin on cell proliferation, NHBE, 1799 cells, 1198 cells, and 1170 cells were transferred onto 96-well plates at densities ranging from 2×10^3 to 4×10^3 cells/well. After 1 day, the cells were changed to the fresh medium containing various concentrations of deguelin dissolved in DMSO (final concentration, 0.1%). Control cultures received 0.1% dimethyl sulfoxide (DMSO) as did the deguelin-treated cultures. […] After 1 day of infection, cells were treated with 10^−7 M or 10^−6 M of deguelin, or 0.1% DMSO as a control, and then incubated for 2 days. […] Six replicate wells were used for each analysis.

NHBE cells = experiment: Apoptosis assay (TUNEL; DNA fragmentation); assay type: cell-based
Procedure: as §1
The percentage of dead cells was determined by fluorescent-activated cell sorting (FACS) analysis of PI-stained nuclei. Apoptosis was also determined by the detection of nucleosomal DNA fragmentation, which was measured using the TACS apoptotic DNA Jaddering kit (Trevigen, Inc., Gaithersburg, Md.) according to the manufacturer's protocol. […] Apoptosis was analyzed using the APO-BRDU staining kit (Phoenix Flow Systems) as described above.

[2] = system: bax and bcl-2 in lung cancer cell lines; experiment: Western blot of bax and bcl-2; assay type: cell-based; details: 10^−7 M deguelin
Procedure: Immunoblotting. Whole cell lysates were prepared in lysis buffer (50 mM N-[2-[…]]-piperazine-N′-[2-ethanesulfonic acid] [HEPES; pH 7.5], 150 mM NaCl, 1.5 mM MgCl2, ImM EDTA, 0.2 mM EGTA, 1% NP40, 10% glycerol, 1 mM dithiothreitol (DTT), 1 mM phenylmethylsulfonyl fluoride, 20 mM sodium fluoride, 5 mM sodium orthovanadate, 10 μg/ml aprotinin, 10 μg/ml leupeptin, 2 μg/ml pepstatin, and 1 mM benzamidine) as described previously (Lee et al., 2002). Equivalent protein concentrations were resolved in sodium dodecyl sulfate-polyacrylamide gels and transferred to a nitrocellulose membrane. After the blocking of transblotted membrane in Tris-buffered saline (TBS) containing 0.05% Tween 20 (TBST) and 5% low fat milk, themembrane was incubated with primary antibody at the appropriate dilution in TBS-5% low-fat milk at 4° C. for 16 h and washed with TBST. The immunoblots were visualized using the ECL kit (Amersham, Inc., Arlington Heights, III) according to the manufacturer's directions. […]
as §2

## COc1cc2c(cc1OC)[C@@H]1C(=O)c3ccc4c(c3O[C@@H]1CO2)C=CC(C)(C)O4 [Deguelin]
H1299 xenografts
  growth of NSCLC xenografts (tumor volume relative to initial volume): inhibited
H1299 NSCLC cells
  sensitization to chemotherapeutic agents: sensitizes cancer cells to chemotherapeutic agents
COX-2
  induced COX-2 expression: downregulated
[1]
  apoptosis (flow cytometry): ≥ 60%
NHBE; MTT assay, 10^−9 M to 10^−7 M, up to 3 days
  effect on NHBE viability: minimal effect
NHBE; deguelin 10^−6M
  Avg. % con: 0.23 % con
  MTT value, mean of replicates (unheaded line): 0.099
  MTT value, replicate (unheaded line): 0.129 and 0.082 and 0.087
NHBE; deguelin 10^−8M
  Avg. % con: 0.53 % con
  MTT value, mean of replicates (unheaded line): 0.229
  MTT value, replicate (unheaded line): 0.249 and 0.227 and 0.21
NHBE; deguelin 10^−10M
  Avg. % con: 0.81 % con
  MTT value, mean of replicates (unheaded line): 0.347
  MTT value, replicate (unheaded line): 0.355 and 0.341 and 0.346
NHBE; deguelin 10^−12M
  Avg. % con: 0.90 % con
  MTT value, mean of replicates (unheaded line): 0.386
  MTT value, replicate (unheaded line): 0.417 and 0.365 and 0.377
NHBE cells
  TUNEL and DNA fragmentation in NHBE cells: neither TUNEL-positive cell population nor DNA fragmentation
[2]
  Bcl-2 expression: not found to be regulated
  bax expression: Increased
